Test results: patent US10632064B2, “Topical regional neuro affective therapy with cannabinoid combination products” (Afgin Pharma, LLC, priority 2015, dated 2020)
Several values for one entry are separate records, joined by “and”; a condition that tells them apart may be missing. Equal values may be shown once. Entries after “also recorded” stand apart in the source; their conditions may differ.

Tests used:
Assay type in all cases: in vivo, human
[1] = tested on: patient with autism and generalized seizures; assay: Example 15: 1 g of 2% CBD cream nuchal, autism and generalized seizures, EEG
Protocol: In Example 15, a patient presented with autism and generalized seizures. They were uncontrolled on Lamictal, Depakote, Keppra, Zonegran, ethosuximide/Zarontin. When examined, they presented with seizures about every 2 weeks on Banzel, Onfi, and Topamax as antiepileptics. FIG. 7 is a baseline EEG taken at the initial examination, showing seizure focus, showing generalized slowing and disorganization with left frontal sharp waves and paroxysms of sharp waves and spikes.
The patient was treated with 1 g of 2% CBD cream to the nuchal (back of the neck). […] They continued therapy with the topical CBD cream to the nuchal region twice daily, and the Topamax was tapered off, resulting in added overall improved encephalopathy.

[2] = tested on: patient with head injury and seizures; assay: Example 14: 1 g of 1.6% CBD cream nuchal twice a day, intractable complex partial seizures, EEG
Protocol: They presented with seizures (intractable complex partial seizures with secondary generalization; episodes of encephalopathy for 24 hours thereafter). […] They had had 5 craniotomies, and previously had been treated with Dilantin, Carbatrol, Keppra, Lamictal, and Depakote. Their current medications were Vimpat and Onfi (clobazam).
The patient was treated with 1 g of 1.6% CBD cream to the nuchal (back of the neck) region twice a day. […] The patient remained on Vimpat, and their dose of Onfi was reduced by half.

[3] = tested on: patients having back/spine pain, fibromyalgia, and/or extremity pain; assay: Example 10: topical CBD (Table 4)
Protocol: In Example 10, 16 patients having back/spine pain, fibromyalgia, and/or extremity pain were treated with topical CBD at the back of the neck. The treatment comprised a dose of either 15 mg or 30 mg cannabinoid drugs, with the majority being CBD, the source of the CBD being CBD oil commercially available from CannaVest.

C=C(C)[C@@H]1CCC(C)=C[C@H]1c1c(O)cc(CCCCC)cc1O [CBD, cannabidiol]
clinical result ([1]; 2% CBD cream nuchal, continued twice daily): more alert and interactive; also recorded: Seizure frequency also was reduced | EEG after CBD application ([1]; within one minute of application of 1 g of 2% CBD cream (FIG. 8)): improvement in the EEG background without previous burst activity; also recorded: right fast activity and sharp waves attenuated | seizure status on treatment ([2]; 16 mg nuchal topical CBD twice daily with Vimpat and Onfi, one year follow-up and 20 months): the patient was seizure-free; also recorded: remained seizure-free since June 2014 | follow-up EEG post-treatment ([2]; one year follow-up (FIG. 6)): right fast activity and sharp waves attenuated; also recorded: no longer showing seizure potential | result after topical CBD, in words (Table 4) ([3]; 15 mg or 30 mg cannabinoid drugs (CBD oil) topical, one patient per entry): Right hand symptoms improved after topical; also recorded: improved strength; also recorded: relief better than Tramadol; also recorded: improved mobility and back pain relief; also recorded: back of neck and back 3×/day; pain relief | pain reduction/relief ([3]; after topical CBD, single patients): pain diminished 40% with improved and 30-40% and 30% (2×) and 50% and 60% reduction in chronic pain within a few | left lower extremity pain after topical CBD ([3]; person, before 6 of 10, after 10 minutes): 2 /10 | time after topical CBD at which the effect was seen ([3]; single patients): 5 minutes (2×) and 10 minutes and within 10 minutes. and Within 15 minutes of topical CBD application and ≤ 15 minutes and ≤ 10 minutes and within 2 minutes of application.
